Consider seven compounds from patent US6747033B2, “Fungicidal triazolopyrimid-7-ylideneamines” (BASF Aktiengesellschaft, priority 2000, dated 2004).

Structures are written as SMILES. Where two headings read alike, the source gives them in different places.

One assay has as its system Plasmopara viticola. Nature of the assay: In vivo fungicidal activity, Grape downy mildew (GDM). Further: ranges in brackets are in %.
For a further assay, the system named is Botrytis cinera. The experiment in a line: In vivo fungicidal activity, Pepper Botrytis (PB). Further: ranges in brackets are in %.
A further assay concerns Alternara solani. Nature of the assay: In vivo fungicidal activity, Tomato early blight (TEB). Further: ranges in brackets are in %.
In another assay the test system is Blumeria graminis. Nature of the assay: In vivo fungicidal activity, Wheat powdery mildew (WPM). Further: ranges in brackets are in %.
The subject of another assay is Venturia inaequalis. The experiment in a line: In vivo fungicidal activity, Apple Scab (AS). Further: ranges in brackets are in %.
Assay [1] has as its system Pyricularia grisea f. sp. oryzae. Format: in vivo. To be noted: Rice Blast.
Assay [2] relates to Pseudocercosporella herpotrichoides. Nature of the assay: In vitro fungicidal activity, Cereal eye spot (PSDCHE). Format: cell-based. Also on record: key: 0: None; 3: slight; 5: moderate; 7: severe; 9: complete. To be noted: 3-7 days of incubation. As to the method: (§1) Test compounds are dissolved in acetone to give concentrations of 25, 10 and 1 ppm and are added to individual cell Walls (24-cell-well plates, Corning), which were previously filled with a suspension of ground plates, Corning), which were previously filled with a suspension of ground fungal mycelium in a chemically defined growth medium. After 3-7 days of incubation, inhibition of […] growth is recorded using the following scale: The data obtained are shown in Table II. [table]

Another assay concerns Pythium ultimum. Nature of the assay: In vitro fungicidal activity, Fruit rot (PYTHUL). It is filed as cell-based. On the set-up: key: 0: None; 3: slight; 5: moderate; 7: severe; 9: complete. To be noted: 3-7 days of incubation. As to the method: as §1
A further assay deals with Rhizoctonia solani. The experiment in a line: In vitro fungicidal activity, Rice sheath blight (RHIZSO). To be noted: 3-7 days of incubation. Also on record: key: 0: None; 3: slight; 5: moderate; 7: severe; 9: complete. It is filed as cell-based. Here is the method: as §1

In the case of `CC(N=c1c(-c2c(F)cccc2F)c(Cl)nc2n(C)cnn12)C(F)(F)F` (centres unmarked) [Example 14], the “GDM disease control rating” value in the assay with Plasmopara viticola (12.5 ppm spray) was 0 (0); in the assay with Plasmopara viticola (50 ppm spray) it was 4 (45-59); with Plasmopara viticola (200 ppm spray) it was 7 (90-95). Moreover, the “PB disease control rating” value in the assay with Botrytis cinera (12.5 ppm spray), in the assay on Botrytis cinera (50 ppm spray) and in the assay on Botrytis cinera (200 ppm spray) was 0 (0) in each case. Moreover, the “TEB disease control rating” value in the assay with Alternara solani (12.5 ppm spray), with Alternara solani (50 ppm spray) and in the assay on Alternara solani (200 ppm spray) was 0 (0) each time. Moreover, the “WPM disease control rating” value in the assay on Blumeria graminis (12.5 ppm spray), in the assay on Blumeria graminis (50 ppm spray) and in the assay on Blumeria graminis (200 ppm spray) was 0 (0) throughout. Also, the “AS disease control rating” value with Venturia inaequalis (12.5 ppm spray) was 0 (0); in the assay on Venturia inaequalis (50 ppm spray), 0 (0); with Venturia inaequalis (200 ppm spray), 6 (75-89). Also, the “RB disease control rating” value in [1] (12.5 ppm spray), in assay [1] (50 ppm spray) and in assay [1] (200 ppm spray) was 0 (0) each time.

`CC(N=c1c(-c2ccc(F)cc2F)c(Cl)n(C)c2ncnn12)C(F)(F)F` (centres unmarked) [Example 7]: the “PSDCH inhibition of mycelial growth rating” value (“PSDCH inhibition” for short) in assay [2] (1 ppm) is reported as 0; in [2] (10 ppm), 1; in assay [2] (25 ppm) it was 0. Moreover, the “GDM disease control rating” value was 0 (0) with Plasmopara viticola (12.5 ppm spray), 0 (0) in the assay on Plasmopara viticola (50 ppm spray) and 8 (96-99) in the assay with Plasmopara viticola (200 ppm spray). Further, the “PB disease control rating” value in the assay with Botrytis cinera (12.5 ppm spray) was 2 (15-29); in the assay with Botrytis cinera (50 ppm spray), 0 (0); with Botrytis cinera (200 ppm spray), 0 (0). Also, the “TEB disease control rating” value in the assay on Alternara solani (12.5 ppm spray), with Alternara solani (50 ppm spray) and with Alternara solani (200 ppm spray) was 0 (0) in each case. Besides, the “WPM disease control rating” value is recorded as 0 (0) with Blumeria graminis (12.5 ppm spray), 4 (45-59) in the assay on Blumeria graminis (50 ppm spray) and 6 (75-89) in the assay on Blumeria graminis (200 ppm spray). For the same compound, the entries for the “AS disease control rating” value in the assay with Venturia inaequalis (12.5 ppm spray), with Venturia inaequalis (50 ppm spray) and in the assay on Venturia inaequalis (200 ppm spray) were 0 (0), 0 (0) and 6 (75-89), respectively. In addition, the “RB disease control rating” value in assay [1] (12.5 ppm spray) was 0 (0); in assay [1] (50 ppm spray) it was 0 (0); in assay [1] (200 ppm spray), 4 (45-59). In addition, the “PYTHU inhibition of mycelial growth rating” value (from here on “PYTHU inhibition”) in the assay on Pythium ultimum (1 ppm), in the assay with Pythium ultimum (10 ppm) and in the assay with Pythium ultimum (25 ppm) was 0 throughout. For the same compound, the “RHIZSO inhibition of mycelial growth rating” value (from here on “RHIZSO inhibition”) in the assay on Rhizoctonia solani (1 ppm), in the assay with Rhizoctonia solani (10 ppm) and in the assay on Rhizoctonia solani (25 ppm) was 5 each time.

Consider `CC(N=c1c(-c2ccc(F)cc2F)c(Cl)nc2n(C)cnn12)C(F)(F)F` (centres unmarked) [Example 16], for which the “PSDCH inhibition” value in [2] (1 ppm), in assay [2] (10 ppm) and in [2] (25 ppm) was 0 throughout. The “GDM disease control rating” value in the assay on Plasmopara viticola (50 ppm spray) is reported as 5 (60-74); with Plasmopara viticola (200 ppm spray), 7 (90-95). In addition, the “PB disease control rating” value in the assay with Botrytis cinera (12.5 ppm spray), in the assay with Botrytis cinera (50 ppm spray) and with Botrytis cinera (200 ppm spray) was 0 (0) each time. Moreover, the “TEB disease control rating” value with Alternara solani (12.5 ppm spray), in the assay with Alternara solani (50 ppm spray) and with Alternara solani (200 ppm spray) was 0 (0) throughout. Besides, the “WPM disease control rating” value in the assay with Blumeria graminis (12.5 ppm spray), in the assay on Blumeria graminis (50 ppm spray) and with Blumeria graminis (200 ppm spray) was 0 (0) each time. Further, the “AS disease control rating” value in the assay with Venturia inaequalis (12.5 ppm spray) was 0 (0); with Venturia inaequalis (50 ppm spray), 5 (60-74); with Venturia inaequalis (200 ppm spray) it was 6 (75-89). Besides, the “RB disease control rating” value in assay [1] (12.5 ppm spray), in assay [1] (50 ppm spray) and in assay [1] (200 ppm spray) was 0 (0) in each case. The “PYTHU inhibition” value in the assay on Pythium ultimum (1 ppm) is reported as 0; in the assay on Pythium ultimum (10 ppm), 5; in the assay with Pythium ultimum (25 ppm) it was 7. Besides, the results for the “RHIZSO inhibition” value with Rhizoctonia solani (1 ppm), in the assay with Rhizoctonia solani (10 ppm) and in the assay with Rhizoctonia solani (25 ppm) were 5, 7 and 7, respectively.

For the compound `CC(N=c1c(-c2ccccc2Cl)c(Cl)nc2n(C)cnn12)C(F)(F)F` (centres unmarked) [Example 15], the “PSDCH inhibition” value in [2] (1 ppm), in assay [2] (10 ppm) and in [2] (25 ppm) was 0 each time. The “GDM disease control rating” value in the assay with Plasmopara viticola (12.5 ppm spray) is on record as 2 (15-29); in the assay with Plasmopara viticola (50 ppm spray), 4 (45-59); in the assay with Plasmopara viticola (200 ppm spray), 6 (75-89). Moreover, the “PB disease control rating” value is given as 0 (0) in the assay with Botrytis cinera (12.5 ppm spray), 0 (0) in the assay on Botrytis cinera (50 ppm spray) and 2 (15-29) in the assay on Botrytis cinera (200 ppm spray). The “TEB disease control rating” value in the assay on Alternara solani (12.5 ppm spray), with Alternara solani (50 ppm spray) and in the assay with Alternara solani (200 ppm spray) was 0 (0) in each case. In addition, the “WPM disease control rating” value in the assay with Blumeria graminis (12.5 ppm spray) is recorded as 0 (0); with Blumeria graminis (50 ppm spray), 0 (0); in the assay with Blumeria graminis (200 ppm spray), 3 (30-44). The “AS disease control rating” value in the assay on Venturia inaequalis (12.5 ppm spray), in the assay with Venturia inaequalis (50 ppm spray) and with Venturia inaequalis (200 ppm spray) was 0 (0) in each case. Also, the “RB disease control rating” value in assay [1] (12.5 ppm spray), in assay [1] (50 ppm spray) and in assay [1] (200 ppm spray) was 0 (0) in each case. Further, the “PYTHU inhibition” value in the assay with Pythium ultimum (1 ppm), with Pythium ultimum (10 ppm) and in the assay on Pythium ultimum (25 ppm) was 0 throughout. For the same compound, the results for the “RHIZSO inhibition” value in the assay on Rhizoctonia solani (1 ppm), in the assay on Rhizoctonia solani (10 ppm) and in the assay with Rhizoctonia solani (25 ppm) were 0, 0 and 3, respectively.

Take `CC(N=c1c(-c2c(F)cccc2F)c(Cl)n(C)c2ncnn12)C(F)(F)F` (centres unmarked) [Example 5]: the “GDM disease control rating” value with Plasmopara viticola (12.5 ppm spray) is 6 (75-89); in the assay on Plasmopara viticola (50 ppm spray) it was 6 (75-89); with Plasmopara viticola (200 ppm spray), 5 (60-74). Also, the “PB disease control rating” value in the assay on Botrytis cinera (12.5 ppm spray) is 0 (0); in the assay on Botrytis cinera (50 ppm spray), 0 (0); in the assay on Botrytis cinera (200 ppm spray), 1 (1-14). In addition, the “TEB disease control rating” value with Alternara solani (12.5 ppm spray), with Alternara solani (50 ppm spray) and in the assay with Alternara solani (200 ppm spray) was 0 (0) throughout. In addition, the “WPM disease control rating” value in the assay on Blumeria graminis (12.5 ppm spray) is 0 (0); with Blumeria graminis (50 ppm spray) it was 3 (30-44); in the assay on Blumeria graminis (200 ppm spray), 6 (75-89). In addition, the “AS disease control rating” value in the assay with Venturia inaequalis (12.5 ppm spray), in the assay on Venturia inaequalis (50 ppm spray) and with Venturia inaequalis (200 ppm spray) was 0 (0) each time. The “RB disease control rating” value in [1] (12.5 ppm spray), in assay [1] (50 ppm spray) and in assay [1] (200 ppm spray) was 0 (0) each time.

Turning to `CC(N=c1c(-c2ccccc2Cl)c(Cl)n(C)c2ncnn12)C(F)(F)F` (centres unmarked) [Example 6], the “PSDCH inhibition” value was found to be 0 in [2] (1 ppm), 1 in assay [2] (10 ppm) and 0 in [2] (25 ppm). The “GDM disease control rating” value is 0 (0) in the assay with Plasmopara viticola (12.5 ppm spray), 0 (0) in the assay on Plasmopara viticola (50 ppm spray) and 7 (90-95) in the assay with Plasmopara viticola (200 ppm spray). Further, the “PB disease control rating” value with Botrytis cinera (12.5 ppm spray), in the assay on Botrytis cinera (50 ppm spray) and with Botrytis cinera (200 ppm spray) was 0 (0) in each case. For the same compound, the “TEB disease control rating” value in the assay on Alternara solani (12.5 ppm spray), with Alternara solani (50 ppm spray) and in the assay with Alternara solani (200 ppm spray) was 0 (0) in each case. For the same compound, the “WPM disease control rating” value in the assay on Blumeria graminis (12.5 ppm spray) is 0 (0); in the assay on Blumeria graminis (50 ppm spray), 0 (0); in the assay on Blumeria graminis (200 ppm spray), 5 (60-74). For the same compound, the “AS disease control rating” value was 0 (0) in the assay with Venturia inaequalis (12.5 ppm spray), 0 (0) with Venturia inaequalis (50 ppm spray) and 5 (60-74) with Venturia inaequalis (200 ppm spray). Moreover, the figures for the “RB disease control rating” value in assay [1] (12.5 ppm spray), in assay [1] (50 ppm spray) and in [1] (200 ppm spray) were 0 (0), 0 (0) and 5 (60-74), respectively. Moreover, the “PYTHU inhibition” value in the assay on Pythium ultimum (1 ppm), in the assay on Pythium ultimum (10 ppm) and in the assay on Pythium ultimum (25 ppm) was 0 in each case. For the same compound, the “RHIZSO inhibition” value in the assay on Rhizoctonia solani (1 ppm), in the assay on Rhizoctonia solani (10 ppm) and in the assay on Rhizoctonia solani (25 ppm) was 0 throughout.

`COc1cc(F)c(-c2c(Cl)nc3n(C)cnn3c2=NC(C)C(F)(F)F)c(F)c1` (centres unmarked) [Example 13]: the “GDM disease control rating” value with Plasmopara viticola (12.5 ppm spray), with Plasmopara viticola (50 ppm spray) and with Plasmopara viticola (200 ppm spray) was 0 (0) each time. Moreover, the “PB disease control rating” value in the assay with Botrytis cinera (12.5 ppm spray), with Botrytis cinera (50 ppm spray) and in the assay with Botrytis cinera (200 ppm spray) was 0 (0) each time. Besides, the “TEB disease control rating” value in the assay with Alternara solani (12.5 ppm spray), in the assay with Alternara solani (50 ppm spray) and with Alternara solani (200 ppm spray) was 0 (0) each time. Besides, the results for the “WPM disease control rating” value in the assay on Blumeria graminis (12.5 ppm spray), in the assay with Blumeria graminis (50 ppm spray) and with Blumeria graminis (200 ppm spray) were 0 (0), 3 (30-44) and 5 (60-74), respectively. The “AS disease control rating” value in the assay with Venturia inaequalis (12.5 ppm spray), in the assay on Venturia inaequalis (50 ppm spray) and in the assay on Venturia inaequalis (200 ppm spray) was 0 (0) each time. The “RB disease control rating” value in [1] (12.5 ppm spray), in assay [1] (50 ppm spray) and in assay [1] (200 ppm spray) was 0 (0) each time.
